Measured values as given in BigSolDB 2.1.

O=C(O)CNC(=O)c1ccccc1
solubility (mole fraction)
Conditions | in 1,4-dioxane | in DMF | in THF | in chloroform | in ethanol | in methanol | in n-butanol | in n-propanol
298.15 K | 0.00729 | 0.206 | 0.0142 | 0.00021 | 0.0148 | 0.0179 | 0.00776 | 0.00884
303.15 K | 0.0084 | 0.213 | 0.0167 | 0.00035 | 0.0162 | 0.0197 | 0.00908 | 0.0108
308.15 K | 0.0109 | 0.219 | 0.018 | 0.00052 | 0.0194 | 0.023 | 0.0106 | 0.0121
313.15 K | 0.014 | 0.226 | 0.0209 | 0.0007 | 0.024 | 0.0275 | 0.0128 | 0.0151
318.15 K | 0.0164 | 0.232 | 0.0228 | 0.00088 | 0.029 | 0.0323 | 0.0151 | 0.0174
323.15 K | 0.0182 | 0.239 | 0.026 | 0.00102 | 0.0342 | 0.0378 | 0.0178 | 0.0201
328.15 K | 0.0209 | 0.246 | 0.0291 | 0.0011 | 0.0396 | 0.0448 | 0.0205 | 0.0232
